From publication PMC9612005 (Pharmaceutics, 2022)
Each block holds one compound with its values, some of them ahead of it.

Key:
Format in all cases: cell-based
rod photoreceptors = assay: µERG a-wave of mouse retinal explants on MEA, scotopic (dark-adapted) stimulation; details: for photoreceptor (rod) responses under low scotopic light: <−2.0 log; for photoreceptor (rod) responses under low scotopic light / reduction of a-wave amplitudes / decrease in the a-wave slope vs control: inhibitor 50 µM, activator 0.1 µM; for reduction of a-wave amplitudes: higher light intensities (≥−2.0 log); for a-wave amplitude / a-wave slope: inh 50 µM, act 0.1 µM, mean ±std
Description: (§1) Further animal experiments were performed using adult postnatal-day (P) 25–30 C57BL/6J mice (n = 12). Animals were housed under standard 12 h white cyclic lighting, had free access to food, water, and playgrounds, and were used irrespective of gender. Animal protocols compliant with §4 of the German law on animal protection were reviewed and approved by the Tübingen University committee on animal protection, and registered on 30 March 2022 under the No. AK05/22M. Moreover, experiments were performed in accordance with the ARVO statement for the use of animals in ophthalmic and visual research. All efforts were made to minimize the number of mice used and their suffering.
(§2) The mice were kept overnight in a ventilated light-tight box for dark-adaption. Subsequent procedures were performed under dim red light. The eyes of the mice were enucleated; then, the retina was isolated in extracellular solution containing (in mM): 125 NaCl, 26 NaHCO3, 2.5 KCl, 2 CaCl2, 1 MgCl2, 1.25 NaH2PO4, and 20 glucose, and was maintained at pH 7.4 using carboxygen perfusion (95/5% O2/CO2). All chemicals were obtained from Merck KGaA (Darmstadt, Germany). For MEA recording, the retinas were placed in the MEA-recording chamber (GC-side down). During the recordings, the tissue was perfused with carboxygenated medium at 32 °C. The chamber perfusion rate was adjusted to 2 mL/min.
(§3) Electrophysiological recordings were performed to assess the light dependent retinal responses (photoreceptors µERG and RGCs spikes) by means of a multi-electrode array system (MEA, USB-MEA60-Up-BC-System-E from Multi Channel Systems, Reutlingen, Germany) equipped with MEA 200/30iR-ITO-pr. The recordings were performed at a 25,000 Hz sampling-rate collecting unfiltered raw data. The trigger-synchronized operation of the light stimulation (LEDD1B T-Cube, Thorlabs) and MEA recording were controlled by the recording protocol set within the MCRack software (v 4.6.2, Multi Channel Systems, Reutlingen, Germany) and the digital I/O box (MCS). The light stimulation (white light LED, 2350 mW, MCWHD3, Thorlabs, Newton, NJ, USA) was applied from beneath the transparent glass MEA, guided by optic fiber and optics. A spectrometer USB4000-UV-VIS-ES (Ocean Optics, Orlando, FL, USA) was employed to calibrate the intensity of the applied light-stimulation protocol. To discriminate the rod and cone photoreceptor responses, a light-stimulation protocol for ex vivo MEA recordings was established following the standard in-vivo ERG protocol. For scotopic recordings (rod responses), the animals were dark-adapted (12 h), while for the photopic recordings (cone responses), the retinal explants were light-adapted on the MEA (5 min at intensity of 4.20 × 10^13 photons/cm^2/s), subsequent to scotopic stimulation. The parameters of the light stimuli were set as: light flash 250 ms long (3 repetition per light intensity, 20 s interval). Scotopic: 10 stimuli in 0.5 log steps from −4.5 to 0.0 (1.33 × 10^9–4.20 × 10^13 photons/cm^2/s). Photopic (background light: 4.20 × 10^13 photons/cm^2/s): four stimuli in 0.5 log steps from +0.5 to +2.0 (1.33 × 10^14–4.20 × 10^15 photons/cm^2/s).
(§4) MEA-recorded raw data files were filtered employing a Butterworth 2nd order filter (MC-Rack, Multi-channel systems) to extract the µERG (field potentials: bandpass 0.01–100 Hz) and spikes (high pass 200 Hz). The filtered data were converted to *.hdf files by MC DataManager (v1.6.1.0, Multi Channel Systems, Reutlingen, Germany) for further data processing in MATLAB [39]. Shown traces data are the average of 30 MEA recording electrodes, per condition. n = 5 retinae were recorded per condition. Statistical significance was estimated by one-way ANOVA followed by the Dunnett´s test for multiple comparisons. […]

cone photoreceptors = assay: µERG a-wave of mouse retinal explants on MEA, photopic (light-adapted) stimulation; details: for decrease in the a-wave slope vs control / a-wave amplitude / a-wave slope: photopic; for decrease in the a-wave slope vs control: averaged; for decrease in the a-wave slope vs control / cone a-wave responses under photopic stimulation: inhibitor 50 µM, activator 0.1 µM; for a-wave amplitude / a-wave slope: inh 50 µM, act 0.1 µM, mean ±std; for cone a-wave responses under photopic stimulation: ≥+0.5 log
Description: as §1, §2, §3, §4

retinal ganglion cells = assay: Light-evoked retinal ganglion cell spike responses of mouse retinal explants on MEA; details: for Spike count (10 ms bin): inh 50 µM, act 0.1 µM, mean ±std; for drop of RGC spiking activity: ≥−2.0 log
Description: as §1, §2, §3
MEA-recorded raw data files were filtered employing a Butterworth 2nd order filter (MC-Rack, Multi-channel systems) to extract the µERG (field potentials: bandpass 0.01–100 Hz) and spikes (high pass 200 Hz). The filtered data were converted to *.hdf files by MC DataManager (v1.6.1.0, Multi Channel Systems, Reutlingen, Germany) for further data processing in MATLAB [39]. Shown traces data are the average of 30 MEA recording electrodes, per condition. n = 5 retinae were recorded per condition. Statistical significance was estimated by one-way ANOVA followed by the Dunnett´s test for multiple comparisons. Experimental data are given as mean ± SEM.

[1] = scotopic, light intensity 0.0 log
[2] = scotopic, light intensity -0.5 log
[3] = scotopic, light intensity -1.0 log
[4] = scotopic, light intensity -1.5 log
[5] = scotopic, light intensity -2.0 log
[6] = scotopic, light intensity -2.5 log
[7] = scotopic, light intensity -3.0 log
[8] = scotopic, light intensity -3.5 log
[9] = scotopic, light intensity -4.0 log
[10] = scotopic, light intensity -4.5 log
[11] = photopic, light intensity +0.5 log
[12] = photopic, light intensity +1.0 log
[13] = photopic, light intensity +1.5 log
[14] = photopic, light intensity +2.0 log
[15] = scotopic, inhibitor 50 µM, activator 0.1 µM

photoreceptor (rod) responses under low scotopic light (rod photoreceptors): rod-responses were essentially absent
a-wave slope (rod photoreceptors; [1]): -0.64± 0.21 µV / 20 ms
a-wave slope (rod photoreceptors; [2]): -0.39± 0.16 µV / 20 ms
a-wave slope (rod photoreceptors; [3]): -0.31± 0.09 µV / 20 ms
a-wave slope (rod photoreceptors; [4]): -0.19± 0.17 µV / 20 ms
a-wave slope (rod photoreceptors; [5]): -0.12± 0.22 µV / 20 ms
a-wave slope (rod photoreceptors; [6]): -0.07± 0.01 µV / 20 ms
a-wave slope (rod photoreceptors; [7]): 0.09± 0.15 µV / 20 ms
a-wave slope (rod photoreceptors; [8]): -0.04± 0.08 µV / 20 ms
a-wave slope (rod photoreceptors; [9]): 0.02± 0.01 µV / 20 ms
a-wave slope (rod photoreceptors; [10]): 0.11± 0.10 µV / 20 ms
a-wave slope (cone photoreceptors; light intensity +0.5 log): -0.04± 0.06 µV / 20 ms
a-wave slope (cone photoreceptors; light intensity +1.0 log): 0.07± 0.22 µV / 20 ms
a-wave slope (cone photoreceptors; light intensity +1.5 log): -0.18± 0.09 µV / 20 ms
a-wave slope (cone photoreceptors; light intensity +2.0 log): -0.23± 0.11 µV / 20 ms
cone a-wave responses under photopic stimulation (cone photoreceptors): no effect on cones
Compound: Nc1nc2c(nc(Sc3ccc(Cl)cc3)n2[C@@H]2O[C@@H]3COP(=O)(O)O[C@H]3[C@H]2O)c(=O)[nH]1 [8-pCPT-cGMP]
reduction of a-wave amplitudes (rod photoreceptors; scotopic): 60–80%
a-wave amplitude (rod photoreceptors; [1]): -27.81± 6.62 µV
a-wave amplitude (rod photoreceptors; [2]): -24.30± 7.17 µV
a-wave amplitude (rod photoreceptors; [3]): -18.28± 4.38 µV
a-wave amplitude (rod photoreceptors; [4]): -14.14± 3.10 µV
a-wave amplitude (rod photoreceptors; [5]): -11.59± 2.75 µV
a-wave amplitude (rod photoreceptors; [6]): -3.02± 0.74 µV
a-wave amplitude (rod photoreceptors; [7]): 0.04± 0.05 µV
a-wave amplitude (rod photoreceptors; [8]): 0.00± 0.00 µV
a-wave amplitude (rod photoreceptors; [9]): 0.00± 0.00 µV
a-wave amplitude (rod photoreceptors; [10]): 0.00± 0.00 µV
decrease in the a-wave slope vs control (rod photoreceptors; scotopic): ~ 85%
decrease in the a-wave slope vs control (cone photoreceptors): ~ 60%
a-wave amplitude (cone photoreceptors; light intensity +0.5 log): -3.04± 1.68 µV
a-wave amplitude (cone photoreceptors; light intensity +1.0 log): -7.72± 1.37 µV
a-wave amplitude (cone photoreceptors; light intensity +1.5 log): -10.79± 1.41 µV
a-wave amplitude (cone photoreceptors; light intensity +2.0 log): -12.55± 1.72 µV
Spike count (10 ms bin) (retinal ganglion cells; [11]): 4.35± 0.79
Spike count (10 ms bin) (retinal ganglion cells; [12]): 4.43± 0.47
Spike count (10 ms bin) (retinal ganglion cells; [13]): 4.74± 1.09
Spike count (10 ms bin) (retinal ganglion cells; [14]): 4.56± 0.92
Spike count (10 ms bin) (retinal ganglion cells; [1]): 3.92± 0.24
Spike count (10 ms bin) (retinal ganglion cells; [2]): 3.60± 0.35
Spike count (10 ms bin) (retinal ganglion cells; [3]): 3.03± 0.52
Spike count (10 ms bin) (retinal ganglion cells; [4]): 3.04± 0.49
Spike count (10 ms bin) (retinal ganglion cells; [5]): 2.41± 0.38
Spike count (10 ms bin) (retinal ganglion cells; [6]): 1.28± 0.51
Spike count (10 ms bin) (retinal ganglion cells; [7]): 0.73± 0.49
Spike count (10 ms bin) (retinal ganglion cells; [8]): 0.86± 0.30
Spike count (10 ms bin) (retinal ganglion cells; [9]): 0.89± 0.07
Spike count (10 ms bin) (retinal ganglion cells; [10]): 0.67± 0.22
drop of RGC spiking activity (retinal ganglion cells; [15]): 35–47%

Compound: O=c1c2nc(Br)n([C@@H]3O[C@@H]4CO[P@@](=O)(S)O[C@H]4[C@H]3O)c2nc2[nH]c(-c3ccccc3)cn12 [Rp-8-Br-PET-cGMPS]
photoreceptor (rod) responses under low scotopic light (rod photoreceptors): essentially abolished photoreceptor responses
light intensity at which rod a-wave response was detectable (rod photoreceptors; scotopic): −2.0 log units
reduction of a-wave amplitudes (rod photoreceptors; scotopic): ~ 96%
a-wave amplitude (rod photoreceptors; [1]): -7.32± 1.37 µV
a-wave slope (rod photoreceptors; [1]): -0.15± 0.11 µV / 20 ms
a-wave amplitude (rod photoreceptors; [2]): -4.49± 1.49 µV
a-wave slope (rod photoreceptors; [2]): -0.07± 0.04 µV / 20 ms
a-wave amplitude (rod photoreceptors; [3]): -3.62± 1.17 µV
a-wave slope (rod photoreceptors; [3]): -0.07± 0.04 µV / 20 ms
a-wave amplitude (rod photoreceptors; [4]): -2.22± 1.40 µV
a-wave slope (rod photoreceptors; [4]): -0.03± 0.03 µV / 20 ms
a-wave amplitude (rod photoreceptors; [5]): -1.85± 0.71 µV
a-wave slope (rod photoreceptors; [5]): -0.04± 0.03 µV / 20 ms
a-wave amplitude (rod photoreceptors; [6]): 0.00± 0.00 µV
a-wave slope (rod photoreceptors; [6]): -0.05± 0.03 µV / 20 ms
a-wave amplitude (rod photoreceptors; [7]): 0.00± 0.00 µV
a-wave slope (rod photoreceptors; [7]): -0.04± 0.02 µV / 20 ms
a-wave amplitude (rod photoreceptors; [8]): 0.00± 0.00 µV
a-wave slope (rod photoreceptors; [8]): 0.02± 0.02 µV / 20 ms
a-wave amplitude (rod photoreceptors; [9]): 0.00± 0.00 µV
a-wave slope (rod photoreceptors; [9]): -0.02± 0.00 µV / 20 ms
a-wave amplitude (rod photoreceptors; [10]): 0.00± 0.00 µV
a-wave slope (rod photoreceptors; [10]): -0.02± 0.03 µV / 20 ms
decrease in the a-wave slope vs control (rod photoreceptors; scotopic): up to 90%
decrease in the a-wave slope vs control (cone photoreceptors): ~90%
a-wave amplitude (cone photoreceptors; light intensity +0.5 log): -1.53± 0.76 µV
a-wave slope (cone photoreceptors; light intensity +0.5 log): 0.03± 0.02 µV / 20 ms
a-wave amplitude (cone photoreceptors; light intensity +1.0 log): -1.98± 0.87 µV
a-wave slope (cone photoreceptors; light intensity +1.0 log): -0.04± 0.02 µV / 20 ms
a-wave amplitude (cone photoreceptors; light intensity +1.5 log): -1.96± 0.89 µV
a-wave slope (cone photoreceptors; light intensity +1.5 log): -0.05± 0.05 µV / 20 ms
a-wave amplitude (cone photoreceptors; light intensity +2.0 log): -2.27± 0.97 µV
a-wave slope (cone photoreceptors; light intensity +2.0 log): -0.01± 0.01 µV / 20 ms
cone a-wave responses under photopic stimulation (cone photoreceptors): the cone a-wave amplitudes showed only minimal increases
Spike count (10 ms bin) (retinal ganglion cells; [11]): 4.85± 0.92
Spike count (10 ms bin) (retinal ganglion cells; [12]): 4.40± 0.94
Spike count (10 ms bin) (retinal ganglion cells; [13]): 4.51± 1.07
Spike count (10 ms bin) (retinal ganglion cells; [14]): 4.92± 1.12
Spike count (10 ms bin) (retinal ganglion cells; [1]): 3.80± 0.26
Spike count (10 ms bin) (retinal ganglion cells; [2]): 3.48± 0.49
Spike count (10 ms bin) (retinal ganglion cells; [3]): 2.91± 0.16
Spike count (10 ms bin) (retinal ganglion cells; [4]): 2.80± 0.63
Spike count (10 ms bin) (retinal ganglion cells; [5]): 2.55± 0.62
Spike count (10 ms bin) (retinal ganglion cells; [6]): 0.83± 0.28
Spike count (10 ms bin) (retinal ganglion cells; [7]): 0.72± 0.10
Spike count (10 ms bin) (retinal ganglion cells; [8]): 1.14± 0.50
Spike count (10 ms bin) (retinal ganglion cells; [9]): 0.98± 0.44
Spike count (10 ms bin) (retinal ganglion cells; [10]): 1.03± 0.27
drop of RGC spiking activity (retinal ganglion cells; [15]): 30–40%
RGC spiking activity under photopic stimulation (retinal ganglion cells; ≥+0.5 log, inhibitor 50 µM, activator 0.1 µM): remained nearly at control levels
